# ChEMBL document CHEMBL4732075, “PROTACs suppression of GSK-3β, a crucial kinase in neurodegenerative diseases” (Eur J Med Chem, 2021)
# Calls of active or inactive are those of the source. No cut-off for these calls is given here.
# Key:
# [1] = target: T1, Glycogen synthase kinase-3 beta (Homo sapiens, UniProt P49841); experiment: Inhibition of N-terminal His6-tagged recombinant human GSK3beta H350L mutant expressed in baculovirus infected Sf21 cells using GSM as substrate incubated for 30 mins in presence of ATP by Kinase-Glo luminescent assay
# Target sequence in this assay (P49841 whole entry): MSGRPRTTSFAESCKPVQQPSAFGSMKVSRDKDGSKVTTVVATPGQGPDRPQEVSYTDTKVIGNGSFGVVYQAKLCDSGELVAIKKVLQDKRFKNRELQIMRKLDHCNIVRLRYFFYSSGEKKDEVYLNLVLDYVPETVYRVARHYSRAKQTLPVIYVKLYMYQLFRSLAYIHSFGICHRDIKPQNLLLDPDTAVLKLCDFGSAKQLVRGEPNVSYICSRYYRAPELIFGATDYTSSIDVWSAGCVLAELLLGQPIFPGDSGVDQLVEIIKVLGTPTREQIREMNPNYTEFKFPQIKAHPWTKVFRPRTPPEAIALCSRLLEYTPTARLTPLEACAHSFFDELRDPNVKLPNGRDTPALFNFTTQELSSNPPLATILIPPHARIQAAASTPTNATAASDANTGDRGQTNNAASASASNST
# [2] = target: T2, Protein cereblon/Glycogen synthase kinase-3 beta (Rattus norvegicus) (UniProt P18266+Q56AP7); experiment: Protac activity at CRBN/GSK3beta in rat PC12 cells assessed as GSK3beta degradation by measuring GSK3beta protein level at 10 uM after 10 hrs by Western blotting analysis; type: cell-based; settings: PC-12
# T2 sequence (P18266 whole entry, looked up): as the sequence (P49841 whole entry) above, with V240M, T390P, T392A, A400T, T402A counted along it
# T2 sequence (Q56AP7 whole entry, looked up): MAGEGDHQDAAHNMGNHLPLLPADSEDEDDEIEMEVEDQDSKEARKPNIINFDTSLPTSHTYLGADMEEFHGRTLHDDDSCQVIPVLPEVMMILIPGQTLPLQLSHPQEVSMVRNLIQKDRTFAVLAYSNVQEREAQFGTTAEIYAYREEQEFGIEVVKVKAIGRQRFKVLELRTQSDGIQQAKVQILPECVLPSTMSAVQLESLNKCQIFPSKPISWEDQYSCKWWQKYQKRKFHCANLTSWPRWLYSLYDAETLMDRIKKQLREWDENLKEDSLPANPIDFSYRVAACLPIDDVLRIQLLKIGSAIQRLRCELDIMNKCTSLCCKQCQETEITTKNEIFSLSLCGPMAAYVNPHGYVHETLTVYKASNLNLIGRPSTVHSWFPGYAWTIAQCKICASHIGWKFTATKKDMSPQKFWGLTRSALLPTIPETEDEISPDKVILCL
# [3] = target: T2, Protein cereblon/Glycogen synthase kinase-3 beta (Rattus norvegicus); experiment: Protac activity at CRBN/GSK3beta in rat PC12 cells assessed as GSK3beta degradation by measuring GSK3beta protein level at 20 uM after 10 hrs by Western blotting analysis (reference value: 100 %); type: cell-based; settings: PC-12
# [4] = target: T2, Protein cereblon/Glycogen synthase kinase-3 beta (Rattus norvegicus); experiment: Protac activity at CRBN/GSK3beta in rat PC12 cells assessed as GSK3beta degradation by measuring GSK3beta protein level at […] preincubated for 2 hrs with […] ligand, pomalidomide followed by compound addition and measured after 8 hrs by Western blotting analysis (reference value: 100 %); type: cell-based; settings: PC-12, dose 8.3 µM
# [5] = target: T2, Protein cereblon/Glycogen synthase kinase-3 beta (Rattus norvegicus); experiment: Protac activity at CRBN/GSK3beta in rat PC12 cells assessed as GSK3beta degradation by measuring GSK3beta protein level at 2.8 uM after 10 hrs by Western blotting analysis (reference value: 100 %); type: cell-based; settings: PC-12
# [6] = target: T2, Protein cereblon/Glycogen synthase kinase-3 beta (Rattus norvegicus); experiment: Protac activity at CRBN/GSK3beta in rat PC12 cells assessed as GSK3beta degradation by measuring GSK3beta protein level at […] after 10 hrs by Western blotting analysis (reference value: 100 %); type: cell-based; settings: PC-12, dose 8.3 µM
# [7] = target: T2, Protein cereblon/Glycogen synthase kinase-3 beta (Rattus norvegicus); experiment: Protac activity at CRBN/GSK3beta in rat PC12 cells assessed as GSK3beta degradation by measuring GSK3beta protein level at 25 uM after 10 hrs by Western blotting analysis (reference value: 100 %); type: cell-based; settings: PC-12
# [8] = target: T2, Protein cereblon/Glycogen synthase kinase-3 beta (Rattus norvegicus); experiment: Protac activity at CRBN/GSK3beta in rat PC12 cells assessed as GSK3beta degradation by measuring GSK3beta protein level at […] preincubated for 2 hrs with proteasome inhibitor, MG132 followed by compound addition and measured after 8 hrs by Western blotting analysis (reference value: 100 %); type: cell-based; design: scale not given: the % may be the effect or the level left; settings: PC-12, dose 8.3 µM
# [9] = target: T2, Protein cereblon/Glycogen synthase kinase-3 beta (Rattus norvegicus); experiment: Protac activity at CRBN/GSK3beta in rat PC12 cells assessed as GSK3beta degradation by measuring GSK3beta protein level at […] preincubated for 2 hrs with GSK3beta inhibitor, G1 followed by compound addition and measured after 8 hrs by Western blotting analysis (reference value: 100 %); type: cell-based; design: scale not given: the % may be the effect or the level left; settings: PC-12, dose 8.3 µM
# [10] = target: T2, Protein cereblon/Glycogen synthase kinase-3 beta (Rattus norvegicus); experiment: Protac activity at CRBN/GSK3beta in rat PC12 cells assessed as GSK3beta degradation by measuring reduction in GSK3beta protein level after 10 hrs by Western blotting analysis; type: cell-based; settings: PC-12, dose 2.8-25 µM
# [11] = target: Cyclin-dependent kinase 9 (Homo sapiens) (UniProt P50750); experiment: Inhibition of CDK9 (unknown origin) at 300 nM relative to control
# [12] = target: Cyclin-dependent kinase 7 (Homo sapiens) (UniProt P50613); experiment: Inhibition of CDK7 (unknown origin) at 300 nM relative to control
# Chain of Cyclin-dependent kinase 7 (Homo sapiens) (P50613 whole entry): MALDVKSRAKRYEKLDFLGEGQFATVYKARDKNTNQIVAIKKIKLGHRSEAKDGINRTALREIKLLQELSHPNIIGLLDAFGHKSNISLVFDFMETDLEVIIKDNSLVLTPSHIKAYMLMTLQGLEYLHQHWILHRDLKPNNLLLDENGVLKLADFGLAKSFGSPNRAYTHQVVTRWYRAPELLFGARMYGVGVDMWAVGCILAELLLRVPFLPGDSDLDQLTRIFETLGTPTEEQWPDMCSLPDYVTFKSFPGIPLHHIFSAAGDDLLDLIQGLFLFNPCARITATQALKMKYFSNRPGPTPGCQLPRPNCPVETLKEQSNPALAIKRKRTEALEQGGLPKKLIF
# [13] = target: Cyclin-dependent kinase 4 (Homo sapiens) (UniProt P11802); experiment: Inhibition of CDK4 (unknown origin) at 300 nM relative to control
# Chain of Cyclin-dependent kinase 4 (Homo sapiens) (P11802 whole entry): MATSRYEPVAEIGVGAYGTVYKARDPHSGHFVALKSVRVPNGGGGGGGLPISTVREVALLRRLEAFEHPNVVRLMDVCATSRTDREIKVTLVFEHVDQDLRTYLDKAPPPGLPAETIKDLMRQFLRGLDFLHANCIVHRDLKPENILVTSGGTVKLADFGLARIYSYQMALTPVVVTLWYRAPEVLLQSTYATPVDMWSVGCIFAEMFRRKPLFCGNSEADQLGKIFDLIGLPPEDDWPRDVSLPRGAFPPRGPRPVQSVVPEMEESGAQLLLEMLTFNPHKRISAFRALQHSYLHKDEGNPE
# [14] = target: Cyclin-dependent kinase 1 (Homo sapiens) (UniProt P06493); experiment: Inhibition of CDK1 (unknown origin) at 300 nM relative to control
# Chain of Cyclin-dependent kinase 1 (Homo sapiens) (P06493 whole entry, looked up): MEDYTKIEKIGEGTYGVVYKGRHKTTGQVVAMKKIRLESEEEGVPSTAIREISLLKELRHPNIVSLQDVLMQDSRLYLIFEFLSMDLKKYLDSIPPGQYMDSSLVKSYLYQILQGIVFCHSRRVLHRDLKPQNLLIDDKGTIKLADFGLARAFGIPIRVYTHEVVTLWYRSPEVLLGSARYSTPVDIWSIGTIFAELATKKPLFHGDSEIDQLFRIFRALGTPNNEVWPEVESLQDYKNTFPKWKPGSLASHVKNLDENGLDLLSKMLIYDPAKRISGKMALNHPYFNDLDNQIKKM
# [15] = target: Mitogen-activated protein kinase 10 (Homo sapiens) (UniProt P53779); experiment: Inhibition of JNK3 (unknown origin) at 300 nM relative to control
# Chain of Mitogen-activated protein kinase 10 (Homo sapiens) (P53779 whole entry): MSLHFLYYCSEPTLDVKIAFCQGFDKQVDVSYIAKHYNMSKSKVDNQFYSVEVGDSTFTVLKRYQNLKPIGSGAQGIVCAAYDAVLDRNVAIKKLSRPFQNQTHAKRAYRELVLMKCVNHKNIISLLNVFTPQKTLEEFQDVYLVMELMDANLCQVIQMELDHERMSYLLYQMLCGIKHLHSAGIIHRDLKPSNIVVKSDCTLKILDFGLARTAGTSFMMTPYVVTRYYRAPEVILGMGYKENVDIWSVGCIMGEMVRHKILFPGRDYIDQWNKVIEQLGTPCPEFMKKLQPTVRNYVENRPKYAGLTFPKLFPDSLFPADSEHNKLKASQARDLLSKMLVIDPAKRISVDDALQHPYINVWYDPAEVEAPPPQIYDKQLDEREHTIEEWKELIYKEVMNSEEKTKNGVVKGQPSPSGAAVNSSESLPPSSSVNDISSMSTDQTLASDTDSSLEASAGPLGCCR
# [16] = target: Mitogen-activated protein kinase 9 (Homo sapiens) (UniProt P45984); experiment: Inhibition of JNK2 (unknown origin) at 300 nM relative to control
# Chain of Mitogen-activated protein kinase 9 (Homo sapiens) (P45984 whole entry, looked up): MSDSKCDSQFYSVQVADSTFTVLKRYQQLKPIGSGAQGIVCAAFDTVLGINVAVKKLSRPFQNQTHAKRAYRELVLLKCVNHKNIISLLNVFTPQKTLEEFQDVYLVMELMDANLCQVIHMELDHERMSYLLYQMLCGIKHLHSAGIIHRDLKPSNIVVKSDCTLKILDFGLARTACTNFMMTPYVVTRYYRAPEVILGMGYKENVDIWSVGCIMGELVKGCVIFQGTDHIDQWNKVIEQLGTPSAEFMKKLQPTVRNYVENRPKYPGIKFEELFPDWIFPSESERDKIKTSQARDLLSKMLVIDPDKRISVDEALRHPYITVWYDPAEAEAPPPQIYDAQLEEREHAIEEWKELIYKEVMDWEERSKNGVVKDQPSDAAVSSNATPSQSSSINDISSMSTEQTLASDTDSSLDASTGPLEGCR
# [17] = target: Dual specificity tyrosine-phosphorylation-regulated kinase 1B (Homo sapiens) (UniProt Q9Y463); experiment: Inhibition of DYRK1beta (unknown origin) at 300 nM relative to control
# Chain of Dual specificity tyrosine-phosphorylation-regulated kinase 1B (Homo sapiens) (Q9Y463 whole entry, looked up): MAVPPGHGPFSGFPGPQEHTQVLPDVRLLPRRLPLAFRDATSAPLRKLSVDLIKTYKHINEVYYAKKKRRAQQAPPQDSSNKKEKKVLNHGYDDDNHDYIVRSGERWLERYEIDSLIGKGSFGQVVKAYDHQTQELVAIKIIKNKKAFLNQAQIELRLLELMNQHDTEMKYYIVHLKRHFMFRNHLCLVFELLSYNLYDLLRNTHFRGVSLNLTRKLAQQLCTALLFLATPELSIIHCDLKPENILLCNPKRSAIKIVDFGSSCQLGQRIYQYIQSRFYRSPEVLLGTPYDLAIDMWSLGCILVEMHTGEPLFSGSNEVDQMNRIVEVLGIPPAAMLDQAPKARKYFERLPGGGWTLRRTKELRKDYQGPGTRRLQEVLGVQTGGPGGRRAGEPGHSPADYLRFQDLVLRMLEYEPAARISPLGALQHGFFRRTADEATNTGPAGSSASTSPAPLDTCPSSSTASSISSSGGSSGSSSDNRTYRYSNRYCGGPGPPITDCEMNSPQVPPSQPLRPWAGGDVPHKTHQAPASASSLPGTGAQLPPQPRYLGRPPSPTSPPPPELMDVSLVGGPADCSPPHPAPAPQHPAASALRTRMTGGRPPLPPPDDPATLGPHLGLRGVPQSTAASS
# [18] = target: Dual specificity tyrosine-phosphorylation-regulated kinase 1A (Homo sapiens) (UniProt Q13627); experiment: Inhibition of DYRK1alpha (unknown origin) at 300 nM relative to control
# [19] = target: T3, Mitogen-activated protein kinase 13 (Homo sapiens) (UniProt O15264); experiment: Inhibition of p38delta (unknown origin) at 300 nM relative to control
# T3 sequence (whole entry): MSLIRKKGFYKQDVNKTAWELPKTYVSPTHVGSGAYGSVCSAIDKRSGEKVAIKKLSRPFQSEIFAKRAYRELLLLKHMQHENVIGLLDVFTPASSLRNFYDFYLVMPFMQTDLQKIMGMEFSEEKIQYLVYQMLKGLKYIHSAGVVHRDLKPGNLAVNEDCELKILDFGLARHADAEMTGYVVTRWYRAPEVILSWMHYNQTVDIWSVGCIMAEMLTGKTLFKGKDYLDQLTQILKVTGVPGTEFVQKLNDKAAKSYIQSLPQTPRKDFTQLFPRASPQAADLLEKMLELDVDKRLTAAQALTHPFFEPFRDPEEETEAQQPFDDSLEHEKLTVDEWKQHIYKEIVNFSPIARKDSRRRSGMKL
# [20] = target: T1, Glycogen synthase kinase-3 beta; experiment: Inhibition of GSK3beta (unknown origin) at 300 nM relative to control
# Target sequence in this assay (P49841 whole entry, looked up): as the sequence (P49841 whole entry) above
# [21] = target: Glycogen synthase kinase-3 alpha (Homo sapiens) (UniProt P49840); experiment: Inhibition of GSK3alpha (unknown origin) at 300 nM relative to control
# Chain of Glycogen synthase kinase-3 alpha (Homo sapiens) (P49840 2-483 limits assumed): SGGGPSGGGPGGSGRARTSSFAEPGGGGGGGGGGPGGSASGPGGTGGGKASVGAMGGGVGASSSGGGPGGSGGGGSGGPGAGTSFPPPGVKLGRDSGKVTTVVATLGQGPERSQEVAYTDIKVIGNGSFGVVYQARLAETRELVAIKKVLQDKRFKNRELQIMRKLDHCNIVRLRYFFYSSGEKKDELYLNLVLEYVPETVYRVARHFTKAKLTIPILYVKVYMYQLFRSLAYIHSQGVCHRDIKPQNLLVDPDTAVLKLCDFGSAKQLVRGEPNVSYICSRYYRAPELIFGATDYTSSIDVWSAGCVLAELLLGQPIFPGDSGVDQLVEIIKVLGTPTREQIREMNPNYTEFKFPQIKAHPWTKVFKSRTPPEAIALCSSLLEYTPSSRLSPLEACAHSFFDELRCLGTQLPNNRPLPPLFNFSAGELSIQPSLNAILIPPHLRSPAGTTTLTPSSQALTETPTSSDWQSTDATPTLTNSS
# [22] = target: Mitogen-activated protein kinase 11 (Homo sapiens) (UniProt Q15759); experiment: Inhibition of p38beta (unknown origin) at 300 nM relative to control
# Chain of Mitogen-activated protein kinase 11 (Homo sapiens) (Q15759 whole entry): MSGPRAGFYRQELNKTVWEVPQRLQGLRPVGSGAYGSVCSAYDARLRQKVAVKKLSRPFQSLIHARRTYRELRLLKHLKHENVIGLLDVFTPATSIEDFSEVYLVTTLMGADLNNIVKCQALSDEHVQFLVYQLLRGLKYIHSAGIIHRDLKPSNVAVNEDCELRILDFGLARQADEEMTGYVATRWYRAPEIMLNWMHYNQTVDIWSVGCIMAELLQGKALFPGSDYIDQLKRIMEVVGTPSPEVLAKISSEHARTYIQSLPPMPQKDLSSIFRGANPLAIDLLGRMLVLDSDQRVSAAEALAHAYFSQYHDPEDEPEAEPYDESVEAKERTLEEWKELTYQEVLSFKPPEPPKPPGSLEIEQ
# [23] = target: Mitogen-activated protein kinase 14 (Homo sapiens) (UniProt Q16539); experiment: Inhibition of p38alpha (unknown origin) at 300 nM relative to control
# Chain of Mitogen-activated protein kinase 14 (Homo sapiens) (Q16539 whole entry): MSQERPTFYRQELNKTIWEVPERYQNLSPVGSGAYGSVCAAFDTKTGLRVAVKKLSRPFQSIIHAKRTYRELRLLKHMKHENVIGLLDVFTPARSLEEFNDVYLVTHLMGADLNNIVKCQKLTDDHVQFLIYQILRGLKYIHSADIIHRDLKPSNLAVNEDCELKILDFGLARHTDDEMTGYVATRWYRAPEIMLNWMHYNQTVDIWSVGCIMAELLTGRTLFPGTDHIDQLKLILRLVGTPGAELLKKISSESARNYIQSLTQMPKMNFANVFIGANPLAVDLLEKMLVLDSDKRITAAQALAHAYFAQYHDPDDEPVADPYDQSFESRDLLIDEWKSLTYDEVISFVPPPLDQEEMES
# [24] = target: Mitogen-activated protein kinase 1 (Homo sapiens) (UniProt P28482); experiment: Inhibition of ERK2 (unknown origin) at 300 nM relative to control
# [25] = target: Mitogen-activated protein kinase 3 (Homo sapiens) (UniProt P27361); experiment: Inhibition of ERK1 (unknown origin) at 300 nM relative to control
# [26] = tested on: BV-2; experiment: Anti-neuroinflammatory activity in mouse BV2 cells assessed as reduction in LPS-induced TNFalpha production at 5 uM pretreated for 5 hrs followed by LPS challenge and measured after 24 hrs by immunofluorescence confocal microscopic analysis; type: functional, cell-based; settings: time 29.0 hrs
# [27] = tested on: HT-22; experiment: Neuroprotective activity against glutamate-induced cell death in mouse HT22 cells at 5 uM preincubated for 10 hrs followed by glutamate challenge and measured after 24 hrs by fluorescence inverted microscopic analysis; type: functional, cell-based
smiles,measurement,setting,value
CNC(=O)c1sc(-c2ccnc(NC(=O)C3CC3)c2)nc1OCCOCCOCCOc1cccc2c1C(=O)N(C1CCC(=O)NC1=O)C2=O (stereo not drawn),IC50,[1],105 nM
same,GSK3beta protein level remaining,[2],92.8%
COc1nc(-c2ccnc(NC(=O)C3CC3)c2)sc1C(=O)NCCCCNC(=O)COc1cccc2c1C(=O)N(C1CCC(=O)NC1=O)C2=O (stereo not drawn),IC50,[1],639 nM
CNC(=O)c1sc(-c2ccnc(NC(=O)C3CC3)c2)nc1OCCCCCCCCCCOc1cccc2c1C(=O)N(C1CCC(=O)NC1=O)C2=O (stereo not drawn),IC50,[1],70.4 nM
same,GSK3beta protein level remaining,[2],85.6%
NC(=O)c1sc(-c2ccnc(NC(=O)C3CC3)c2)nc1O,GSK3beta protein level remaining,[2],104%
same,Activity,[3],111%
NC(=O)c1sc(-c2ccnc(NC(=O)C3CC3)c2)nc1OCCOCC#Cc1cccc2c1CN(C1CCC(=O)NC1=O)C2=O (stereo not drawn),IC50,[1],63.8 nM
same,GSK3beta protein level remaining,[2],86.9%
CNC(=O)c1sc(-c2ccnc(NC(=O)C3CC3)c2)nc1OCCOCC#Cc1ccc2c(c1)C(=O)N(C1CCC(=O)NC1=O)C2=O (stereo not drawn),IC50,[1],19.7 nM
same,GSK3beta protein level remaining,[2],68.8%
COc1nc(-c2ccnc(NC(=O)C3CC3)c2)sc1C(=O)NCCCCCCNC(=O)COc1cccc2c1C(=O)N(C1CCC(=O)NC1=O)C2=O (stereo not drawn),IC50,[1],243 nM
CNC(=O)c1sc(-c2ccnc(NC(=O)C3CC3)c2)nc1OCCOCCOCCOCCOc1cccc2c1C(=O)N(C1CCC(=O)NC1=O)C2=O (stereo not drawn),IC50,[1],73.2 nM
same,GSK3beta protein level remaining,[2],71.2%
CNC(=O)c1sc(-c2ccnc(NC(=O)C3CC3)c2)nc1OCCCCCCCCn1cc(COc2cccc3c2C(=O)N(C2CCC(=O)NC2=O)C3=O)nn1 (stereo not drawn),IC50,[1],83.1 nM
same,GSK3beta protein level remaining,[2],25.2%
same,Activity,[4],109%
same,Activity,[5],55.8%
same,Activity,[6],36.5%
same,Activity,[7],16.7%
same,Activity,[8],96.6%
same,Activity,[9],102%
same,Activity,[10],Dose-dependent effect
same,inhibition,[11],3.27%
same,inhibition,[12],3.65%
same,inhibition,[13],4.09%
same,inhibition,[14],4.01%
same,inhibition,[15],13.8%
same,inhibition,[16],1.78%
same,inhibition,[17],19.6%
same,inhibition,[18],40.4%
same,inhibition,[19],18.4%
same,inhibition,[20],81.5%
same,inhibition,[21],88.9%
same,inhibition,[22],6.94%
same,inhibition,[23],5.63%
same,inhibition,[24],5.84%
same,inhibition,[25],6.79%
same,Activity,[26],Active
same,Activity,[27],Active
CNC(=O)c1sc(-c2ccnc(NC(=O)C3CC3)c2)nc1OCCOCCOCCn1cc(COc2cccc3c2C(=O)N(C2CCC(=O)NC2=O)C3=O)nn1 (stereo not drawn),IC50,[1],46.9 nM
same,GSK3beta protein level remaining,[2],62.7%
NC(=O)c1sc(-c2ccnc(NC(=O)C3CC3)c2)nc1OCCC#Cc1ccc2c(c1)C(=O)N(C1CCC(=O)NC1=O)C2=O (stereo not drawn),IC50,[1],> 1000 nM
CNC(=O)c1sc(-c2ccnc(NC(=O)C3CC3)c2)nc1OCCCC#Cc1cccc2c1CN(C1CCC(=O)NC1=O)C2=O (stereo not drawn),IC50,[1],295 nM
same,GSK3beta protein level remaining,[2],85.1%
Nc1cccc2c1C(=O)N(C1CCC(=O)NC1=O)C2=O (stereo not drawn),GSK3beta protein level remaining,[2],109%
CNC(=O)c1sc(-c2ccnc(NC(=O)C3CC3)c2)nc1OCCOCCOCCOCCn1cc(COc2cccc3c2C(=O)N(C2CCC(=O)NC2=O)C3=O)nn1 (stereo not drawn),IC50,[1],79.5 nM
same,GSK3beta protein level remaining,[2],54%
CNC(=O)c1sc(-c2ccnc(NC(=O)C3CC3)c2)nc1OCCCCCCCCCCCCOc1cccc2c1C(=O)N(C1CCC(=O)NC1=O)C2=O (stereo not drawn),IC50,[1],98 nM
same,GSK3beta protein level remaining,[2],58.1%
NC(=O)c1sc(-c2ccnc(NC(=O)C3CC3)c2)nc1OCCOCC#Cc1ccc2c(c1)C(=O)N(C1CCC(=O)NC1=O)C2=O (stereo not drawn),IC50,[1],27.7 nM
same,GSK3beta protein level remaining,[2],75.3%
CNC(=O)c1sc(-c2ccnc(NC(=O)C3CC3)c2)nc1OCCCC#Cc1ccc2c(c1)C(=O)N(C1CCC(=O)NC1=O)C2=O (stereo not drawn),IC50,[1],79.1 nM
same,GSK3beta protein level remaining,[2],99.2%
CNC(=O)c1sc(-c2ccnc(NC(=O)C3CC3)c2)nc1OCCC#Cc1cccc2c1CN(C1CCC(=O)NC1=O)C2=O (stereo not drawn),IC50,[1],> 1000 nM
CNC(=O)c1sc(-c2ccnc(NC(=O)C3CC3)c2)nc1OCCOCCOCCOCCOCCOc1cccc2c1C(=O)N(C1CCC(=O)NC1=O)C2=O (stereo not drawn),IC50,[1],69.3 nM
same,GSK3beta protein level remaining,[2],95.5%
COc1nc(-c2ccnc(NC(=O)C3CC3)c2)sc1C(=O)NCCCNC(=O)COc1cccc2c1C(=O)N(C1CCC(=O)NC1=O)C2=O (stereo not drawn),IC50,[1],874 nM
CNC(=O)c1sc(-c2ccnc(NC(=O)C3CC3)c2)nc1OCCCCCCCCOc1cccc2c1C(=O)N(C1CCC(=O)NC1=O)C2=O (stereo not drawn),IC50,[1],23.8 nM
same,GSK3beta protein level remaining,[2],95.6%
CNC(=O)c1sc(-c2ccnc(NC(=O)C3CC3)c2)nc1OCCCCCCOc1cccc2c1C(=O)N(C1CCC(=O)NC1=O)C2=O (stereo not drawn),IC50,[1],71.6 nM
CNC(=O)c1sc(-c2ccnc(NC(=O)C3CC3)c2)nc1OCCOCC#Cc1cccc2c1CN(C1CCC(=O)NC1=O)C2=O (stereo not drawn),IC50,[1],49.2 nM
same,GSK3beta protein level remaining,[2],89.7%
